Test [1] has as its system Plasmodium falciparum. Nature of the test: ST_JUDE: Plasmodium falciparum 3D7 EC50 (uM) as measured by SYBR green dye. The test is classed as functional, organism-based.
Test [2] has as its system Plasmodium falciparum. Nature of the test: ST_JUDE: Plasmodium falciparum K1 EC50 (uM) as measured by SYBR green dye. The test is classed as functional, organism-based.

Regarding `CCOC(=O)C(=O)Oc1cc2oc(C(=O)OCC)c(-c3nc4ccccc4s3)c(=O)c2cc1CC`, the concentration for a half-maximal effect (EC50) in the test on Plasmodium falciparum [1] and in the test on Plasmodium falciparum [2] was above 15 µM in each case.
As to `O=C(COc1ccccc1)NC(c1ccc(Cl)cc1)c1cc(Cl)c2cccnc2c1O` (configuration not stated), the EC50 (as a rule, the concentration at which the effect is half-maximal) turned out to be 1.83 µM in the test with Plasmodium falciparum [1] and 1.68 µM in the test with Plasmodium falciparum [2].
`O=C(Nc1cccc(F)c1)c1cc2ccccc2oc1=O`: the EC50 in the test with Plasmodium falciparum [1] and in the test with Plasmodium falciparum [2] was above 15 µM throughout.
Consider `CCCOc1ccc(-c2nonc2NC(=O)c2cccc(OC)c2)cc1OCCC`, for which the EC50 came out at 1.16 µM with Plasmodium falciparum [1] and 1.21 µM with Plasmodium falciparum [2].
Taken in the same sequence, the figures for `CCOc1ccc(Nc2cc(C)nc3c(C)cc(C)cc23)cc1` were 3.73 µM and 6.67 µM.
Take `CC(=O)c1ccc(NC(=O)C2c3ccccc3C(=O)N(CC(C)C)C2c2cccs2)cc1` (configuration not stated): the 50% effective concentration (EC50) in the test on Plasmodium falciparum [1] was found to be 0.571 µM; in the test on Plasmodium falciparum [2], 0.682 µM.
Taken in the same sequence, the figures for `CSc1nc(SC)c2c3c(sc2n1)CN(C)CC3` were 4.16 µM and 4.75 µM.
Taken in the same sequence, the figures for `Cc1ccnc(NC(c2ccc(Cl)cc2Cl)c2ccc3cccnc3c2O)c1` (configuration not stated) were 1.56 µM and 1.44 µM.
On the same counts, the results for `Oc1c(C(Nc2ccccn2)c2cccc(Oc3ccccc3)c2)ccc2cccnc12` (configuration not stated) are 2.92 µM and 2.76 µM.
On to `CN(C)CCNc1nc(Cc2ccccc2)nc2sc3c(c12)CCCC3`, for which the EC50 in the test with Plasmodium falciparum [1] and with Plasmodium falciparum [2] was above 15 µM in each case.
For the compound `CCOc1ccccc1CN1CCN(Cc2cc(Br)ccc2O)CC1`, the figures for the EC50 in the test on Plasmodium falciparum [1] and in the test on Plasmodium falciparum [2] were 2.48 µM and 1.29 µM, respectively.
On the same counts, the results for `CN(C)CCN(C)C(=O)c1cccc(OC2CCN(Cc3ccccc3O)CC2)c1` are 4.8 µM and 5.14 µM.
On the same counts, the results for `C[n+]1ccccc1/C=C1\Sc2ccccc2N1CCO` are 5.49 µM and 3.1 µM.
Taken in the same sequence, the figures for `CCc1ccc(NC(=O)CN2N=NC3C(=O)N(c4ccc(Br)cc4)C(=O)C32)cc1` (configuration not stated) were above 15 µM and above 15 µM.
As for `CCOc1cc(O)c(-c2[nH]nc(C)c2Oc2ccc(F)cc2)cc1CC`, the values for the EC50 in the test with Plasmodium falciparum [1] and with Plasmodium falciparum [2] were 2.51 µM and 3.55 µM, respectively.
On the same counts, the results for `Cc1ccc(Cn2c(=N)n(CC(=O)c3ccc([N+](=O)[O-])cc3)c3ccccc32)cc1` are 7.64 µM and 10.4 µM.
Taken in the same sequence, the figures for `CCOc1cc(/C=C(\C#N)c2nn(CCO)c(N)c2C#N)cc(I)c1OC` were above 15 µM and above 15 µM.
Taken in the same sequence, the figures for `CCOC(=O)c1sc(N2C(=O)C(O)=C(C(=O)c3ccc(Cl)cc3)C2c2ccccc2)nc1C` (configuration not stated) were above 15 µM and above 15 µM.
`CCOC(=O)c1c(NC(=O)c2ccc(Cl)cc2Cl)sc(C)c1C`: the EC50 in the test with Plasmodium falciparum [1] and in the test with Plasmodium falciparum [2] was above 15 µM throughout.
For `CC1CC(C)CN(C(=O)c2ccc(Cl)cc2Cl)C1` (configuration not stated), the EC50 with Plasmodium falciparum [1] was 1.32 µM; with Plasmodium falciparum [2], above 15 µM.
As to `CC(C)/N=C1\C(=O)c2ccccc2C(O)=C1Cl`, the EC50 in the test with Plasmodium falciparum [1] was 1.23 µM; in the test with Plasmodium falciparum [2], 0.53 µM.
Take `CCC(C(=O)NCc1ccccc1Cl)n1c2ccccc2c2nc(=O)cc(C)n21` (configuration not stated): the concentration giving a half-maximal response (EC50) with Plasmodium falciparum [1] and with Plasmodium falciparum [2] was above 15 µM each time.
Turning to `O=C(NCc1ccccc1)C1CCC(Cn2c(=O)c3ccccc3n(Cc3cccc(F)c3)c2=O)CC1` (configuration not stated), the concentration giving a half-maximal response (EC50) in the test with Plasmodium falciparum [1] and with Plasmodium falciparum [2] was above 15 µM each time.
Regarding `COCCn1/c(=N/C(=O)COc2ccccc2)sc2cc(OC)ccc21`, the EC50 in the test on Plasmodium falciparum [1] and in the test on Plasmodium falciparum [2] was above 15 µM throughout.
As to `CN(Cc1cccc(OCCNC(=O)c2ccc3c(c2)OCO3)c1)Cc1cccc2cccnc12`, the concentration for a half-maximal effect (EC50) with Plasmodium falciparum [1] and in the test with Plasmodium falciparum [2] was above 15 µM in each case.
As to `CCOC(=O)c1c(N)n[nH]c1O`, the EC50 in the test with Plasmodium falciparum [1] and with Plasmodium falciparum [2] was above 15 µM each time.
For the compound `CC(C)(C)CNc1cc(N2CCN(C(=O)c3cccs3)CC2)ccc1[N+](=O)[O-]`, the EC50 with Plasmodium falciparum [1] is 4.53 µM; in the test with Plasmodium falciparum [2] it was 4.76 µM.
Consider `O=C(Nc1ccc2oc(-c3ccccc3)nc2c1)C(Cl)(Cl)Cl`, for which the concentration giving a half-maximal response (EC50) in the test on Plasmodium falciparum [1] was above 15 µM; with Plasmodium falciparum [2] it was 4.52 µM.
Consider `Cc1ccc(NC(=O)Cn2c(C)c(C=O)c3ccccc32)cc1Cl`, for which the EC50 with Plasmodium falciparum [1] is above 15 µM; in the test on Plasmodium falciparum [2], 4.63 µM.
On the same counts, the results for `CCc1ccc(Oc2c(C(F)(F)F)oc3c(CN4CCCCC4)c(O)ccc3c2=O)cc1` are 1.61 µM and 0.558 µM.
As to `Cc1ccc(NC(=O)c2csc3c2CCCCC3)c(C)c1`, the concentration for a half-maximal effect (EC50) in the test with Plasmodium falciparum [1] was 1.77 µM; in the test with Plasmodium falciparum [2] it was above 15 µM.
Take `COc1cccc(C(=O)NC(c2ccc(C)cc2)c2cc(Cl)c3cccnc3c2O)c1` (configuration not stated): the EC50 with Plasmodium falciparum [1] and in the test on Plasmodium falciparum [2] was above 15 µM throughout.
As for `CCCN1CCC(NC(=S)Nc2ccc([N+](=O)[O-])cc2)CC1`, the EC50 in the test on Plasmodium falciparum [1] and in the test on Plasmodium falciparum [2] was above 15 µM each time.
As to `CN(C)CCNc1c2c(nc3ccccc13)CCC2`, the EC50 in the test with Plasmodium falciparum [1] is 3.96 µM; in the test with Plasmodium falciparum [2], above 15 µM.
Taken in the same sequence, the figures for `COC(=O)CNC(c1ccccc1)c1cc(Br)ccc1NC(=O)c1ccccc1` (configuration not stated) were 6.83 µM and 6.06 µM.
Taken in the same sequence, the figures for `COc1cccc(NC(=O)Cn2c3ccccc3c(=O)c3cc(Cl)ccc32)c1` were above 15 µM and 5.45 µM.
Taken in the same sequence, the figures for `O=[N+]([O-])c1ccc2ncnc(Nc3cc(Cl)ccc3O)c2c1` were 1.62 µM and 1.75 µM.
For the compound `COc1cc(/C=C(\C#N)c2nc3ccccc3[nH]2)cc(Br)c1OCC#N`, the EC50 in the test with Plasmodium falciparum [1] and in the test on Plasmodium falciparum [2] was above 15 µM in each case.
Take `CNC(=O)C(=O)N1CCC2(CC1)OCCN2S(=O)(=O)c1ccc(C)cc1`: the EC50 in the test on Plasmodium falciparum [1] and in the test on Plasmodium falciparum [2] was above 15 µM throughout.
With `CCCSc1nnc(Cn2c(=O)sc3ccccc32)n1C`, the EC50 in the test with Plasmodium falciparum [1] and with Plasmodium falciparum [2] was above 15 µM in each case.
Take `Cc1ccc2ccc(C(Nc3ccccn3)c3cccc(Cl)c3)c(O)c2n1` (configuration not stated): the values for the EC50 in the test with Plasmodium falciparum [1] and with Plasmodium falciparum [2] were 4.13 µM and 3.66 µM, respectively.
On the same counts, the results for `CCOC(=O)c1oc2ccccc2c1NC(=O)c1ccc(C)c([N+](=O)[O-])c1` are above 15 µM and above 15 µM.
Taken in the same sequence, the figures for `COC(=O)C1=CNC=C(C(=O)OC)C1c1ccc(F)c(F)c1` were 8.04 µM and above 15 µM.
On the same counts, the results for `COC(=O)c1c(S(=O)(=O)N2CCCC2)sc2c1CCN(CCC(C)c1ccccc1)C2` (configuration not stated) are 4.39 µM and 4.78 µM.
Turning to `CCc1c(C)nc(-n2nc(C)cc2NC(=O)c2cccc(Br)c2)nc1O`, the EC50 in the test on Plasmodium falciparum [1] and in the test on Plasmodium falciparum [2] was above 15 µM in each case.
Take `Cc1c(Cl)ccc2c(C(=O)Nc3ccc(S(=O)(=O)N4CCOCC4)cc3)cc(-c3cccnc3)nc12`: the results for the EC50 with Plasmodium falciparum [1] and in the test with Plasmodium falciparum [2] were 1.22 µM and above 15 µM, respectively.
As to `CC(=O)c1ccc(NC2=C(n3nnc4ccccc43)C(=O)c3ccccc3C2=O)cc1`, the values for the EC50 with Plasmodium falciparum [1] and in the test with Plasmodium falciparum [2] were above 15 µM and 1.58 µM, respectively.
On the same counts, the results for `CCCc1cc(O)nc(Nc2ccc(Cl)c(C(F)(F)F)c2)n1` are 3.09 µM and 2.84 µM.
`CN1CCN(c2nc(Nc3ccc(SC(F)F)cc3)c3cnn(-c4ccccc4)c3n2)CC1`: the EC50 in the test on Plasmodium falciparum [1] stood at 1.31 µM; with Plasmodium falciparum [2] it was 3.72 µM.
Take `Cn1c(-c2ccccc2)[n+](C)c2ccccc21`: the EC50 in the test with Plasmodium falciparum [1] stood at 11.7 µM; with Plasmodium falciparum [2], 8.29 µM.
On the same counts, the results for `CCN(CC)CCNc1nc(Nc2cccc(OC)c2)c2cnn(-c3ccccc3)c2n1` are 0.458 µM and 2.96 µM.
On the same counts, the results for `CO/C(O)=C1\C(C)=NC2=C(C(=O)CC(c3ccc(OC)c(OC)c3)C2)C1c1cccc(Cl)c1` (configuration not stated) are 4.1 µM and 3.46 µM.
Turning to `O=C(O)c1ccc(S(=O)(=O)NC2=C/C(=N\S(=O)(=O)c3ccccc3)C(=O)c3ccccc32)cc1`, the concentration giving a half-maximal response (EC50) with Plasmodium falciparum [1] and in the test on Plasmodium falciparum [2] was above 15 µM throughout.
On to `CC(=O)C1=C(C)NC(SCC(=O)c2cccc([N+](=O)[O-])c2)=C(C#N)C1c1ccc(Cl)cc1` (configuration not stated), for which the figures for the EC50 in the test on Plasmodium falciparum [1] and in the test with Plasmodium falciparum [2] were above 15 µM and 6.73 µM, respectively.
On the same counts, the results for `COc1ccc(OCC(O)Cn2c(C)[n+](C)c3ccccc32)cc1` (configuration not stated) are above 15 µM and above 15 µM.
Taken in the same sequence, the figures for `CC(C)c1ccc(/C=C2\Oc3c(ccc(O)c3CN(C)C)C2=O)cc1` were 1.01 µM and 0.615 µM.
As for `CCn1cc(CCCC(=O)NCc2ccc(OC)cc2)c2ccccc21`, the EC50 was found to be 3.75 µM with Plasmodium falciparum [1] and 4.06 µM in the test on Plasmodium falciparum [2].
On the same counts, the results for `COc1cccc2sc(N(Cc3cccnc3)C(=O)C3CCCCC3)nc12` are above 15 µM and above 15 µM.
Taken in the same sequence, the figures for `CSCCCN1C(=O)CSC1c1cnccc1-c1ccc(Br)cc1` (configuration not stated) were 1.21 µM and 1.17 µM.
On the same counts, the results for `CCN(CC)CCCNc1nc(-c2ccc(Cl)cc2)nc2ccccc12` are above 15 µM and above 15 µM.
With `Cc1ccc(O)c(-n2cc3c(c2-c2ccc(C(C)(C)C)cc2)c(=O)n(C)c(=O)n3C)c1`, the figures for the EC50 in the test with Plasmodium falciparum [1] and in the test with Plasmodium falciparum [2] were 3.57 µM and 2.41 µM, respectively.
On the same counts, the results for `Cc1nc2ccccc2c(=O)n1-c1cccc(NC(=O)c2ccc(C(F)(F)F)cc2)c1` are above 15 µM and above 15 µM.
Taken in the same sequence, the figures for `COc1ccccc1-c1nnc(NC(=O)c2cccc(SC)c2)o1` were above 15 µM and above 15 µM.
Taken in the same sequence, the figures for `CCc1ccccc1NC(=O)C1c2ccccc2C(=O)N(C2CCCC2)C1c1cccs1` (configuration not stated) were 1.73 µM and 3.38 µM.
Consider `Cc1cc(Cn2ccnc2)c(C)c([N+](=O)[O-])c1Cn1ccnc1`, for which the EC50 in the test with Plasmodium falciparum [1] and in the test with Plasmodium falciparum [2] was above 15 µM throughout.
Regarding `CC(=O)c1c(C)n(CCOc2ccc(F)cc2)c2ccccc12`, the concentration giving a half-maximal response (EC50) was above 15 µM with Plasmodium falciparum [1] and 4.88 µM in the test with Plasmodium falciparum [2].
On the same counts, the results for `Cc1cc(Nc2ccc(F)c(Cl)c2)n2nc(C)nc2n1` are 3.2 µM and 9.17 µM.
Taken in the same sequence, the figures for `CCCN(CCC)CCCNC(=S)Nc1ccc2nc(N3CCN(C)CC3)cc(C)c2c1` were 3.4 µM and 5.25 µM.
Taken in the same sequence, the figures for `CC[n+]1ccccc1/C=C1\Sc2ccc(C)cc2N1C` were 0.572 µM and 0.453 µM.
`CC[n+]1c(C=C2C=CN(C)C=C2)ccc2cc(C)ccc21`: the half-maximal effective concentration (EC50) in the test on Plasmodium falciparum [1] was found to be 2.8 µM; in the test with Plasmodium falciparum [2] it was 0.469 µM.
On the same counts, the results for `O=[N+]([O-])c1cccc(-c2cn(-c3ccccc3)c3[n+]2CCCS3)c1` are 2.28 µM and 3.91 µM.

These data come from ChEMBL document CHEMBL1154198, “Chemical genetics of Plasmodium falciparum” (Nature, 2010).
